Laboratory results taken from patent publication US12195482B1 (Arcus Biosciences, Inc., priority 2022, dated 2025).

Tests used:
[1] = molecular target: T1, p-AXL (Homo sapiens, UniProt P30530); assay: Axl phosphorylation inhibition ELISA in HEK293T cells transfected with NanoLuc-tagged AXL; assay type: cell-based; settings: 1 h compound incubation, media (OptiMEM)
T1 construct: expressed in transfected cells; host or cells: HEK293T
T1 sequence (P30530 26-894): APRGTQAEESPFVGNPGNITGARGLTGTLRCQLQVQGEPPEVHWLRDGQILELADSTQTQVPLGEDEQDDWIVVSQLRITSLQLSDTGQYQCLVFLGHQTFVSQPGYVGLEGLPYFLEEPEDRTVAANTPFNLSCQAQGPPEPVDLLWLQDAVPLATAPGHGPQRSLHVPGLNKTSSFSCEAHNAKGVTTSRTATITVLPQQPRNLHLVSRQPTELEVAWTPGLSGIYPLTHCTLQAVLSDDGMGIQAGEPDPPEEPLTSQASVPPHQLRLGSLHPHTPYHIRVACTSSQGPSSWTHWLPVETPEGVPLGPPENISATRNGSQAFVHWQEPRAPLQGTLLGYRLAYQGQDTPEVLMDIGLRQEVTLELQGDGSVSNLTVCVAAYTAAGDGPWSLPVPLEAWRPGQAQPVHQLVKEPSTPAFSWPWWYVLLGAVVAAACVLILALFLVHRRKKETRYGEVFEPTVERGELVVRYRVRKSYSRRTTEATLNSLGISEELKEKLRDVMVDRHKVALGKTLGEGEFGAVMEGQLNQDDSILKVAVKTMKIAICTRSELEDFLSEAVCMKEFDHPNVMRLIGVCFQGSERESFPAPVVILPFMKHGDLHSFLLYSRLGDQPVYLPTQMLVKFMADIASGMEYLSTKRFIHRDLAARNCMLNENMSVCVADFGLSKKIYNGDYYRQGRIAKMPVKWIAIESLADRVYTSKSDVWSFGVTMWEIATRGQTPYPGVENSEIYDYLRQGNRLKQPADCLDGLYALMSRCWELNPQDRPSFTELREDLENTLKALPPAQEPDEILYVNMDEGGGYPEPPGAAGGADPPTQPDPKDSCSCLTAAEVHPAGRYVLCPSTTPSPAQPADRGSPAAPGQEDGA
In short: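 Phospho-AXL detected by luminescence of NanoLuc tag after capture of cell lysate on biotinylated anti-phospho-tyrosine mAb plates (2 h). Lysates came from transiently transfected HEK293T cells treated 1 h at 37° C with serial 2-fold dilutions (22 points). IC50 by standard 4-parameter logistic fitting.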

[2] = molecular target: T2, Axl (Homo sapiens, UniProt P30530); assay: Biochemical potency, HTRF KinEASE-TK kinase assay; set-up: purchased Invitrogen; settings: 5 nM AXL, 700 μM ATP
T2 sequence (P30530 26-894): T1 sequence (P30530 26-894)
In short: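 Compounds preincubated 1 h at RT with enzyme in 50 mM HEPES pH 7.4, 10 mM MgCl2, 0.01% BSA, 1 mM DTT; reactions then ran 2 h at RT with 5 nM AXL or 1 nM TYRO3/MER, 800 nM TK substrate-biotin, 700 μM ATP, 1% DMSO. HTRF 665/620 ratio read; percent activity calculated.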

Row | SMILES | IC50 [1] [nM] | IC50 [2] [nM]
1 | CC(C)(O)c1cccnc1-c1ccc(-c2n[nH]c3ncc(-c4ccc5c(c4)CC[C@@H](N4C6COCC4C6)CC5)cc23)cc1 [Example 10, 2-[2-(4-{5-[(7S)-7-{3-Oxa-6-azabicyclo[3.1.1]heptan-6-yl}-6,7,8,9-tetrahydro-5H-benzo[7]annulen-2-yl]-1H-pyrazolo[3,4-b]pyridin-3-yl}phenyl)pyridin-3-yl]propan-2-ol] | < 100 | < 100
2 | Cn1cnnc1-c1ccc(-c2n[nH]c3ncc(-c4ccc5c(c4)CC[C@@H](N4C6COCC4C6)CC5)cc23)cc1 [Example 169, 6-[(7S)-2-{3-[4-(4-Methyl-4H-1,2,4-triazol-3-yl)phenyl]-1H-pyrazolo[3,4-b]pyridin-5-yl}-6,7,8,9-tetrahydro-5H-benzo[7]annulen-7-yl]-3-oxa-6-azabicyclo[3.1.1]heptane] | < 100 | < 100
3 | Cc1cccnc1-c1ccc(-c2n[nH]c3ncc(-c4ccc5c(c4)CC[C@@](C)(N4CCC[C@H]4C)CC5)cc23)cc1 [Example 163, 3-Methyl-2-(4-{5-[(7S)-7-methyl-7-[(2R)-2-methylpyrrolidin-1-yl]-6,7,8,9-tetrahydro-5H-benzo[7]annulen-2-yl]-2H-pyrazolo[3,4-b]pyridin-3-yl}phenyl)pyridine] | < 100 | < 100
4 | c1ccc(-n2cc(-c3n[nH]c4ncc(-c5ccc6c(c5)CC[C@@H](N5C7COCC5C7)CC6)cc34)cn2)nc1 [Example 168, 6-[(7S)-2-{3-[1-(Pyridin-2-yl)-1H-pyrazol-4-yl]-1H-pyrazolo[3,4-b]pyridin-5-yl}-6,7,8,9-tetrahydro-5H-benzo[7]annulen-7-yl]-3-oxa-6-azabicyclo[3.1.1]heptane] | 100 to 1000 | < 100
5 | Cc1ccnc(-c2ccc(-c3n[nH]c4ncc(-c5ccc6c(c5)CC[C@@H](N5C7COCC5C7)CC6)cc34)cc2)c1C [Example 118, 6-[(7S)-2-{3-[4-(3,4-Dimethylpyridin-2-yl)phenyl]-1H-pyrazolo[3,4-b]pyridin-5-yl}-6,7,8,9-tetrahydro-5H-benzo[7]annulen-7-yl]-3-oxa-6-azabicyclo[3.1.1]heptane] | < 100 | < 100
6 | Cc1cccnc1-c1ccc(-c2n[nH]c3ncc(-c4ccc5c(c4)CC[C@@H](N4C6COCC4C6)CC5)cc23)nc1 [Example 26, 3-Methyl-6′-{5-[(7S)-7-{3-oxa-6-azabicyclo[3.1.1]heptan-6-yl}-6,7,8,9-tetrahydro-5H-benzo[7]annulen-2-yl]-1H-pyrazolo[3,4-b]pyridin-3-yl}-2,3′-bipyridine] | < 100 | < 100
7 | Cc1cc(F)cnc1-c1ccc(-c2c[nH]c3ncc(-c4ccc5c(c4)CC[C@@H](N4C6COCC4C6)CC5)cc23)cc1 [Example 29, 6-[(7S)-3-[3-[4-(5-Fluoro-3-methylpyridin-2-yl)phenyl]-1H-pyrrolo[2,3-b]pyridin-5-yl]-6,7,8,9-tetrahydro-5H-benzo[7]annulen-7-yl]-3-oxa-6-azabicyclo[3.1.1]heptane] | 100 to 1000 | < 100
8 | C[C@H]1COC(=O)N1c1cccnc1-c1ccc(-c2n[nH]c3ncc(-c4ccc5c(c4)CC[C@@H](N4C6COCC4C6)CC5)cc23)cc1 [Example 125, (4S)-4-Methyl-3-[2-(4-{5-[(7S)-7-{3-oxa-6-azabicyclo[3.1.1]heptan-6-yl}-6,7,8,9-tetrahydro-5H-benzo[7]annulen-2-yl]-1H-pyrazolo[3,4-b]pyridin-3-yl}phenyl)pyridin-3-yl]-1,3-oxazolidin-2-one] | < 100 | < 100
9 | C[C@@H]1COC(=O)N1c1cccnc1-c1ccc(-c2n[nH]c3ncc(-c4ccc5c(c4)CC[C@@H](N4C6COCC4C6)CC5)cc23)cc1 [Example 124, (4R)-4-Methyl-3-[2-(4-{5-[(7S)-7-{3-oxa-6-azabicyclo[3.1.1]heptan-6-yl}-6,7,8,9-tetrahydro-5H-benzo[7]annulen-2-yl]-1H-pyrazolo[3,4-b]pyridin-3-yl}phenyl)pyridin-3-yl]-1,3-oxazolidin-2-one] | < 100 | < 100
10 | c1ccc(-c2ccc(-c3c[nH]c4ncc(-c5ccc6c(c5)CC[C@@H](N5C7COCC5C7)CC6)cc34)cc2)nc1 [Example 155, 6-[(7S)-2-{3-[4-(Pyridin-2-yl)phenyl]-1H-pyrrolo[2,3-b]pyridin-5-yl}-6,7,8,9-tetrahydro-5H-benzo[7]annulen-7-yl]-3-oxa-6-azabicyclo[3.1.1]heptane] | 100 to 1000 | < 100
11 | Cc1ccc(C)c(-c2ccc(-c3n[nH]c4ncc(-c5ccc6c(c5)CC[C@@H](N5C7COCC5C7)CC6)cc34)cc2)n1 [Example 120, 6-[(7S)-2-{3-[4-(3,6-Dimethylpyridin-2-yl)phenyl]-1H-pyrazolo[3,4-b]pyridin-5-yl}-6,7,8,9-tetrahydro-5H-benzo[7]annulen-7-yl]-3-oxa-6-azabicyclo[3.1.1]heptane] | < 100 | < 100
12 | Cn1nncc1-c1ccc(-c2n[nH]c3ncc(-c4ccc5c(c4)CC[C@@H](N4C6COCC4C6)CC5)cc23)cc1 [Example 13, 6-[(7S)-2-{3-[4-(1-Methyl-1H-1,2,3-triazol-5-yl)phenyl]-1H-pyrazolo[3,4-b]pyridin-5-yl}-6,7,8,9-tetrahydro-5H-benzo[7]annulen-7-yl]-3-oxa-6-azabicyclo[3.1.1]heptane] | 100 to 1000 | < 100
13 | Cc1cccnc1-c1ccc(-c2n[nH]c3ncc(-c4ccc5c(c4)CC[C@@H](N[C@H]4CCCOC4)CC5)cc23)cc1 [Example 129, (3S)—N-[(7S)-2-{3-[4-(3-Methylpyridin-2-yl)phenyl]-1H-pyrazolo[3,4-b]pyridin-5-yl}-6,7,8,9-tetrahydro-5H-benzo[7]annulen-7-yl]oxan-3-amine] | < 100 | < 100
14 | Cc1cc(F)cnc1-c1ccc(-c2n[nH]c3ncc(-c4ccc5c(c4)CC[C@@H](N4C6COCC4C6)CC5)cc23)cc1 [Example 28, 6-[(7S)-3-[3-[4-(5-Fluoro-3-methylpyridin-2-yl)phenyl]-1H-pyrazolo[3,4-b]pyridin-5-yl]-6,7,8,9-tetrahydro-5H-benzo[7]annulen-7-yl]-3-oxa-6-azabicyclo[3.1.1]heptane] | 100 to 1000 | < 100
15 | Cc1ccccc1-c1ccc(-c2c[nH]c3ncc(-c4ccc5c(c4)CC[C@@H](N4C6COCC4C6)CC5)cc23)nc1 [Example 97, 6-[(7S)-2-{3-[5-(2-Methylphenyl)pyridin-2-yl]-1H-pyrrolo[2,3-b]pyridin-5-yl}-6,7,8,9-tetrahydro-5H-benzo[7]annulen-7-yl]-3-oxa-6-azabicyclo[3.1.1]heptane] | > 1000 | < 100
16 | Cn1ncnc1-c1ccc(-c2n[nH]c3ncc(-c4ccc5c(c4)CC[C@@H](N4C6COCC4C6)CC5)cc23)cc1 [Example 110, 6-[(7S)-2-{3-[4-(1-Methyl-1H-1,2,4-triazol-5-yl)phenyl]-2H-pyrazolo[3,4-b]pyridin-5-yl}-6,7,8,9-tetrahydro-5H-benzo[7]annulen-7-yl]-3-oxa-6-azabicyclo[3.1.1]heptane] | < 100 | < 100
17 | FC(F)Oc1cccnc1-c1ccc(-c2n[nH]c3ncc(-c4ccc5c(c4)CC[C@@H](N4C6COCC4C6)CC5)cc23)cc1 [Example 99, 6-[(7S)-2-(3-{4-[3-(Difluoromethoxy)pyridin-2-yl]phenyl}-1H-pyrazolo[3,4-b]pyridin-5-yl)-6,7,8,9-tetrahydro-5H-benzo[7]annulen-7-yl]-3-oxa-6-azabicyclo[3.1.1]heptane] | < 100 | < 100
18 | COCCOc1cccnc1-c1ccc(-c2n[nH]c3ncc(-c4ccc5c(c4)CC[C@@H](N4C6COCC4C6)CC5)cc23)cc1 [Example 180, 6-[(7S)-2-(3-{4-[3-(2-Methoxyethoxy)pyridin-2-yl]phenyl}-1H-pyrazolo[3,4-b]pyridin-5-yl)-6,7,8,9-tetrahydro-5H-benzo[7]annulen-7-yl]-3-oxa-6-azabicyclo[3.1.1]heptane] | < 100 | < 100
19 | Cc1cccnc1-c1ccc(-c2n[nH]c3ncc(-c4ccc5c(c4)CC[C@@](C)(N4CCC[C@H]4C)CC5)cc23)nc1 [Example 105, 3-Methyl-6′-{5-[(7S)-7-methyl-7-[(2R)-2-methylpyrrolidin-1-yl]-6,7,8,9-tetrahydro-5H-benzo[7]annulen-2-yl]-1H-pyrazolo[3,4-b]pyridin-3-yl}-2,3′-bipyridine] | < 100 | < 100
